# Legend:
# MAPKAPK2 = target: T1, MAPKAPK2 (Homo sapiens, UniProt P49137); experiment: Kinobeads full dose-response competition binding: MAPKAPK2; conditions: Gene Name MAPKAPK2
# T1 construct: endogenous in cells
# [1] = target: T2, endogenous kinases and other proteins enriched by Kinobeads from mixed cancer cell lysates (Homo sapiens, UniProt Q9NSY1); experiment: Kinobeads pulldown, full dose-response (eight doses); format: binding; conditions: target BMP2K;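 note: competition with Kinobeads ε after inhibitor preincubation in lysate (5 mg/ml protein) for 45 min at 4 °C, DMSO control, doses 0.3–1,000 nM, label-free LC–MS/MS quantification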
# T2 construct: endogenous in cells
# [2] = target: T3, endogenous kinases and other proteins enriched by Kinobeads from mixed cancer cell lysates (Homo sapiens, UniProt Q9H0K1); experiment: as above; format: binding; conditions: target SIK2
# T3 construct: endogenous in cells
# [3] = target: T4, endogenous kinases and other proteins enriched by Kinobeads from mixed cancer cell lysates (Homo sapiens, UniProt Q9H2G2); experiment: as above; format: binding; conditions: target SLK
# T4 construct: endogenous in cells
# [4] = target: T5, endogenous kinases and other proteins enriched by Kinobeads from mixed cancer cell lysates (Homo sapiens, UniProt Q9NQS7); experiment: as above; format: binding; conditions: target INCENP
# T5 construct: endogenous in cells
# [5] = target: T6, endogenous kinases and other proteins enriched by Kinobeads from mixed cancer cell lysates (Homo sapiens, UniProt O14965); experiment: as above; format: binding; conditions: target AURKA
# T6 construct: endogenous in cells
# [6] = target: T7, endogenous kinases and other proteins enriched by Kinobeads from mixed cancer cell lysates (Homo sapiens, UniProt P35916); experiment: as above; format: binding; conditions: target FLT4
# T7 construct: endogenous in cells
# [7] = target: T8, endogenous kinases and other proteins enriched by Kinobeads from mixed cancer cell lysates (Homo sapiens, UniProt Q13188); experiment: as above; format: binding; conditions: target STK3
# T8 construct: endogenous in cells
# [8] = target: T9, endogenous kinases and other proteins enriched by Kinobeads from mixed cancer cell lysates (Homo sapiens, UniProt O60285); experiment: as above; format: binding; conditions: target NUAK1
# T9 construct: endogenous in cells
# T9 sequence (O60285 whole entry): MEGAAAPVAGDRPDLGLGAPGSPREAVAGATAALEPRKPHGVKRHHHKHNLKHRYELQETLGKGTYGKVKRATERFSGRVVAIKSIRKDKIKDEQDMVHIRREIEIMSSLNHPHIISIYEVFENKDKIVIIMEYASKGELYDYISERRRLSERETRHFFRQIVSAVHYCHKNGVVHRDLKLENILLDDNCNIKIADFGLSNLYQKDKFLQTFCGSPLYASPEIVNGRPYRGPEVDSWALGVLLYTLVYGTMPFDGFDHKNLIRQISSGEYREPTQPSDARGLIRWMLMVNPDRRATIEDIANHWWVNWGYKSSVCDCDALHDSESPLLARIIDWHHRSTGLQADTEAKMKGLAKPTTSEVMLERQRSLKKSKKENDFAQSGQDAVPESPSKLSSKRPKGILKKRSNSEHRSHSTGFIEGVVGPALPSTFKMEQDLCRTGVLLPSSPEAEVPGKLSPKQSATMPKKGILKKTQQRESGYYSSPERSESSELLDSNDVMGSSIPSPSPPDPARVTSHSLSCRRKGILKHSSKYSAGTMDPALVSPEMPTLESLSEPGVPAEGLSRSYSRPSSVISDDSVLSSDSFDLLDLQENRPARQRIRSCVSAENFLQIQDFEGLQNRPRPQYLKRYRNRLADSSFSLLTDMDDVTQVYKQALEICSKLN
# [9] = target: T10, endogenous kinases and other proteins enriched by Kinobeads from mixed cancer cell lysates (Homo sapiens, UniProt Q6ZSR9); experiment: as above; format: binding; conditions: target Q6ZSR9
# T10 construct: endogenous in cells
# T10 sequence (Q6ZSR9 whole entry): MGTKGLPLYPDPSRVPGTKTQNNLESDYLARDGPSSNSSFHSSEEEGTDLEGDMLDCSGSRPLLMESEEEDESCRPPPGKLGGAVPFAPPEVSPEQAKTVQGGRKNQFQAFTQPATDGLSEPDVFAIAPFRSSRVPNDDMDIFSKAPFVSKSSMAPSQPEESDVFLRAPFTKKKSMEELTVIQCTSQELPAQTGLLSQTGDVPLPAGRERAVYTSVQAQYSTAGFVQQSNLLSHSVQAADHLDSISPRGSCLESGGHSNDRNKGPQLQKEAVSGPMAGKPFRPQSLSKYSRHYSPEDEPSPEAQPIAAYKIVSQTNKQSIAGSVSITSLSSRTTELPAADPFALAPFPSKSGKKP
# [10] = target: T11, endogenous kinases and other proteins enriched by Kinobeads from mixed cancer cell lysates (Homo sapiens, UniProt Q12851); experiment: as above; format: binding; conditions: target MAP4K2
# T11 construct: to maximize the representation of endogenous proteins; endogenous in cells
# [11] = target: T12, endogenous kinases and other proteins enriched by Kinobeads from mixed cancer cell lysates (Homo sapiens, UniProt O94806); experiment: as above; format: binding; conditions: target PRKD3
# T12 construct: endogenous in cells
# T12 sequence (O94806 whole entry): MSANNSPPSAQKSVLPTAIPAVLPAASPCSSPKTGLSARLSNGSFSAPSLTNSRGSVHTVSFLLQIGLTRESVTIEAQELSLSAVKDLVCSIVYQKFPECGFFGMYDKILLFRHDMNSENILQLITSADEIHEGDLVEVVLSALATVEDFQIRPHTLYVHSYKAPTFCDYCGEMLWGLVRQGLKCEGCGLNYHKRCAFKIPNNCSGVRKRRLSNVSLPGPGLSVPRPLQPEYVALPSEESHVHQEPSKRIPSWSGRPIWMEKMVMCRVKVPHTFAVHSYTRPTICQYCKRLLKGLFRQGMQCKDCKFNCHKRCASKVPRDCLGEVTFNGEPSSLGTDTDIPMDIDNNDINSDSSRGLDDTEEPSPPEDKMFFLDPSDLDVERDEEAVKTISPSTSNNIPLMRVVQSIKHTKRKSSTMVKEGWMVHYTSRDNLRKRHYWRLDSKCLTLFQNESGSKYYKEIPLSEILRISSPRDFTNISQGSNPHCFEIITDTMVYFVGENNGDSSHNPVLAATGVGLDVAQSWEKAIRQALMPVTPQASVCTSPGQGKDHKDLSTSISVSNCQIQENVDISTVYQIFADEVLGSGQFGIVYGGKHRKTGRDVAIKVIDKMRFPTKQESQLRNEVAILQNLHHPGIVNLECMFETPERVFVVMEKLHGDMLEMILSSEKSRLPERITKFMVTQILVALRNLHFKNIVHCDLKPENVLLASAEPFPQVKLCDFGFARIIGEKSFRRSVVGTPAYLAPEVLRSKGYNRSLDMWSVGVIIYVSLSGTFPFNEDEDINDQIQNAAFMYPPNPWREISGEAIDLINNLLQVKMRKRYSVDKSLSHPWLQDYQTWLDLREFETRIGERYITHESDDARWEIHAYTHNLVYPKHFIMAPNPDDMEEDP
# [12] = target: T13, endogenous kinases and other proteins enriched by Kinobeads from mixed cancer cell lysates (Homo sapiens, UniProt Q7KZI7); experiment: as above; format: binding; conditions: target MARK2
# T13 construct: endogenous in cells
# [13] = target: T14, endogenous kinases and other proteins enriched by Kinobeads from mixed cancer cell lysates (Homo sapiens, UniProt Q9BZL6); experiment: as above; format: binding; conditions: target PRKD2
# T14 construct: endogenous in cells
# [14] = target: T15, endogenous kinases and other proteins enriched by Kinobeads from mixed cancer cell lysates (Homo sapiens, UniProt P11274); experiment: as above; format: binding; conditions: target BCR
# T15 construct: endogenous in cells
# [15] = target: T16, endogenous kinases and other proteins enriched by Kinobeads from mixed cancer cell lysates (Homo sapiens, UniProt Q96PY6); experiment: as above; format: binding; conditions: target NEK1
# T16 construct: endogenous in cells
# T16 sequence (Q96PY6 whole entry): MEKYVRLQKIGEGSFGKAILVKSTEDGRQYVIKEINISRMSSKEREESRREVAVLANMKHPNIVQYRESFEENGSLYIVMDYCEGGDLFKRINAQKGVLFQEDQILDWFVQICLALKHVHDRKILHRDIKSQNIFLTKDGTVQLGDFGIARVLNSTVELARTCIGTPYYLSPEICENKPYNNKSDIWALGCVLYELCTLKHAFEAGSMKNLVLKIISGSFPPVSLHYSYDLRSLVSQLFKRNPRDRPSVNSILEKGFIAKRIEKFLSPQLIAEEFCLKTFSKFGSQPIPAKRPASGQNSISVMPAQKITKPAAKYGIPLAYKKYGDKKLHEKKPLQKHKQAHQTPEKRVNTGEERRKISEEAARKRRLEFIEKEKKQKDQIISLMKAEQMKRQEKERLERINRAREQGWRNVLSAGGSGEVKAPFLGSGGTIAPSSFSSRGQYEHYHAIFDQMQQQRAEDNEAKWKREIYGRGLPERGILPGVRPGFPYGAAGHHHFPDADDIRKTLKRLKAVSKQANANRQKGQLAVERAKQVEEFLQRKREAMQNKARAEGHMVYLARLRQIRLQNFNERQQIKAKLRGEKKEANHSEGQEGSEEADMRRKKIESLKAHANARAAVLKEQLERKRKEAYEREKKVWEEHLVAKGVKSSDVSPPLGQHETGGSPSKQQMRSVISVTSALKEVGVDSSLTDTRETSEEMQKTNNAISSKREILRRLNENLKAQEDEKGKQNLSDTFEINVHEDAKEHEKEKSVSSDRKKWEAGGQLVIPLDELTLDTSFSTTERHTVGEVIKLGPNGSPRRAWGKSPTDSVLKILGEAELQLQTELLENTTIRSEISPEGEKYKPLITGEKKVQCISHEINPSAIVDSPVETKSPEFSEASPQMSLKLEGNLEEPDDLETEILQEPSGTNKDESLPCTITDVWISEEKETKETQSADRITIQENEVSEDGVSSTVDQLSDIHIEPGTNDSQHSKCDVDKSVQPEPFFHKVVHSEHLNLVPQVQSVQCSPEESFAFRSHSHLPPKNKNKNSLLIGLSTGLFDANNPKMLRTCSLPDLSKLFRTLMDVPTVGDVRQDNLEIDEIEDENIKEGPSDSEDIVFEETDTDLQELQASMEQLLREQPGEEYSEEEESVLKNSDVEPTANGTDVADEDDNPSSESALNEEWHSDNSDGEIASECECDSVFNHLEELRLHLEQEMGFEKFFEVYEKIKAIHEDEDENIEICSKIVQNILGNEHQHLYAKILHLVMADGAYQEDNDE
# [16] = target: T17, endogenous kinases and other proteins enriched by Kinobeads from mixed cancer cell lysates (Homo sapiens, UniProt Q2M2I8); experiment: as above; format: binding; conditions: target AAK1
# T17 construct: to maximize the representation of endogenous proteins; endogenous in cells
# [17] = target: T18, endogenous kinases and other proteins enriched by Kinobeads from mixed cancer cell lysates (Homo sapiens, UniProt Q15831); experiment: as above; format: binding; conditions: target STK11
# T18 construct: endogenous in cells
# [18] = target: T19, endogenous kinases and other proteins enriched by Kinobeads from mixed cancer cell lysates (Homo sapiens, UniProt O94804); experiment: as above; format: binding; conditions: target STK10
# T19 construct: endogenous in cells
# [19] = target: T20, endogenous kinases and other proteins enriched by Kinobeads from mixed cancer cell lysates (Homo sapiens, UniProt Q9P289); experiment: as above; format: binding; conditions: target STK26
# T20 construct: endogenous in cells
# T20 sequence (Q9P289 whole entry): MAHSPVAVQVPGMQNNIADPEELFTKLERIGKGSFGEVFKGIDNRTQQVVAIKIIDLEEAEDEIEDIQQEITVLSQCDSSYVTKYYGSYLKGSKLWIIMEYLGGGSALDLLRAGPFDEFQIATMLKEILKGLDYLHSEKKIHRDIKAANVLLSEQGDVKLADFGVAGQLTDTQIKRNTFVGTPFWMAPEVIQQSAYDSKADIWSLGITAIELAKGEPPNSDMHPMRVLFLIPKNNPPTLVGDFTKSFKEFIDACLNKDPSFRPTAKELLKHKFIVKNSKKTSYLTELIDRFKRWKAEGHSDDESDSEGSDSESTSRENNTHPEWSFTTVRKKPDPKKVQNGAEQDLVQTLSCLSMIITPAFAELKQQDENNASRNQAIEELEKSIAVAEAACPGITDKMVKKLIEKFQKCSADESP
# [20] = target: T21, endogenous kinases and other proteins enriched by Kinobeads from mixed cancer cell lysates (Homo sapiens, UniProt Q13043); experiment: as above; format: binding; conditions: target STK4
# T21 construct: endogenous in cells
# [21] = target: T22, endogenous kinases and other proteins enriched by Kinobeads from mixed cancer cell lysates (Homo sapiens, UniProt O00444); experiment: as above; format: binding; conditions: target PLK4
# T22 construct: endogenous in cells
# [22] = target: T23, endogenous kinases and other proteins enriched by Kinobeads from mixed cancer cell lysates (Homo sapiens, UniProt Q15375); experiment: as above; format: binding; conditions: target EPHA7
# T23 construct: endogenous in cells
# T23 sequence (Q15375 28-998): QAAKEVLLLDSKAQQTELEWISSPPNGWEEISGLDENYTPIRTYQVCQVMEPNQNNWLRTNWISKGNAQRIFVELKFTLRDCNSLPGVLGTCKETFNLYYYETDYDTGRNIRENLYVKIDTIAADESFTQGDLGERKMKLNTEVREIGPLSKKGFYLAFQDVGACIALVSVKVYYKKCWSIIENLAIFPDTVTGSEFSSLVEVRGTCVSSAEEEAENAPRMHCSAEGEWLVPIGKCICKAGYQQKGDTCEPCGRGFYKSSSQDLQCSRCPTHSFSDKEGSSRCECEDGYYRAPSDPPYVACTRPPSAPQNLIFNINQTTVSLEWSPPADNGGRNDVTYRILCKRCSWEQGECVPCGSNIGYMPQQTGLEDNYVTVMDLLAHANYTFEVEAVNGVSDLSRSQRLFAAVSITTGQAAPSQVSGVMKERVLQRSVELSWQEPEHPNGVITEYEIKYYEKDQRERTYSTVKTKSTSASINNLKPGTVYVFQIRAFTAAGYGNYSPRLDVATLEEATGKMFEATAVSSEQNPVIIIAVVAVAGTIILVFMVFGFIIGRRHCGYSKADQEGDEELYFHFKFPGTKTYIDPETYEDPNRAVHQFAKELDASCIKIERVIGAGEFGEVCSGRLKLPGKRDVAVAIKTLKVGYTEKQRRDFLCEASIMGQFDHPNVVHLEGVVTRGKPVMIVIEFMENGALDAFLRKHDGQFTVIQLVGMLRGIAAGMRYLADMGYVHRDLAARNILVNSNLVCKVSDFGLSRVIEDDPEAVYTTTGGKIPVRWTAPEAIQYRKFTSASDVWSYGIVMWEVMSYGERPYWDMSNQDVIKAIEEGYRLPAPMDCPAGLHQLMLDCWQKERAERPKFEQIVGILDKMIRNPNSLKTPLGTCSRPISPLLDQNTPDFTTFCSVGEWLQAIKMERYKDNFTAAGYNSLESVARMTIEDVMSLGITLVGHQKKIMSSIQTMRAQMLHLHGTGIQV
# [23] = target: T24, endogenous kinases and other proteins enriched by Kinobeads from mixed cancer cell lysates (Homo sapiens, UniProt Q96L34); experiment: as above; format: binding; conditions: target MARK4
# T24 construct: endogenous in cells
# [24] = target: T25, endogenous kinases and other proteins enriched by Kinobeads from mixed cancer cell lysates (Homo sapiens, UniProt O15530); experiment: as above; format: binding; conditions: target PDPK1;PDPK2P
# T25 construct: endogenous in cells
# [25] = target: T26, endogenous kinases and other proteins enriched by Kinobeads from mixed cancer cell lysates (Homo sapiens, UniProt Q13873); experiment: as above; format: binding; conditions: target BMPR2
# T26 construct: endogenous in cells
# [26] = target: T27, endogenous kinases and other proteins enriched by Kinobeads from mixed cancer cell lysates (Homo sapiens, UniProt P51946); experiment: as above; format: binding; conditions: target CCNH
# T27 construct: endogenous in cells
# T1 sequence (P49137 whole entry): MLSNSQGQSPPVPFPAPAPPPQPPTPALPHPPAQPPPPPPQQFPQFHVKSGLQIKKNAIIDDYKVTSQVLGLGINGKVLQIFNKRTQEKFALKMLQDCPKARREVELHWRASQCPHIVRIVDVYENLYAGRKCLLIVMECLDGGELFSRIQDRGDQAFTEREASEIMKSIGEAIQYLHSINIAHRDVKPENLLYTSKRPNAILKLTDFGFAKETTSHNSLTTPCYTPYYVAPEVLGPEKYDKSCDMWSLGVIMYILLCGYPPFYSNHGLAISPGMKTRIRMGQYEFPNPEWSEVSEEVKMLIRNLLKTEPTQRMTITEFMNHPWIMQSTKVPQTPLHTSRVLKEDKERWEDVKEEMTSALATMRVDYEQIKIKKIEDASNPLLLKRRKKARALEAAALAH
structure (smiles),measurement,setting,value
NCc1ccc(-c2nc(-c3ccncc3)c(-c3ccc(Cl)c(O)c3)[nH]2)cc1 [SB-476429-A],Relative Intensity 0.3nM,"MAPKAPK2; 0.3nM compound, DMSO = 1",1.233
same,Relative Intensity 1nM,"MAPKAPK2; 1nM compound, DMSO = 1",1.094
same,Relative Intensity 3nM,"MAPKAPK2; 3nM compound, DMSO = 1",1.023
same,Relative Intensity 10nM,"MAPKAPK2; 10nM compound, DMSO = 1",1.156
same,Relative Intensity 30nM,"MAPKAPK2; 30nM compound, DMSO = 1",0.8314
same,Relative Intensity 100nM,"MAPKAPK2; 100nM compound, DMSO = 1",0.6869
same,Relative Intensity 300nM,"MAPKAPK2; 300nM compound, DMSO = 1",0.5275
same,Relative Intensity 1000nM,"MAPKAPK2; 1000nM compound, DMSO = 1",0
same,Kd,"MAPKAPK2; EC50 with Correction, doses in nM, read-out: apparent Kd",174 nM
same,EC50,"MAPKAPK2; eight-dose curve fit, doses in nM",174 nM
Cn1cc(-c2nc(N[C@@H]3CCCC[C@@H]3N)c(F)c3c2C(=O)NC3)cn1 [TAK659],EC50,[1],0.537 µM
same,Kd,[1]; read-out: apparent Kd,0.456 µM
same,EC50,[2],0.26 µM
same,Kd,[2]; read-out: apparent Kd,0.14 µM
same,EC50,[3],0.516 µM
same,Kd,[3]; read-out: apparent Kd,0.516 µM
same,EC50,[4],0.15 µM
same,Kd,[4]; read-out: apparent Kd,0.15 µM
same,EC50,[5],1.28 µM
same,Kd,[5]; read-out: apparent Kd,0.59 µM
same,EC50,[6],0.564 µM
same,Kd,[6]; read-out: apparent Kd,0.308 µM
same,EC50,[7],0.742 µM
same,Kd,[7]; read-out: apparent Kd,0.683 µM
same,EC50,[8],1.02 µM
same,Kd,[8]; read-out: apparent Kd,0.312 µM
same,EC50,[9],0.566 µM
same,Kd,[9]; read-out: apparent Kd,0.493 µM
same,EC50,[10],0.595 µM
same,Kd,[10]; read-out: apparent Kd,0.459 µM
same,EC50,[11],1.41 µM
same,Kd,[11]; read-out: apparent Kd,1.18 µM
same,EC50,[12],0.837 µM
same,Kd,[12]; read-out: apparent Kd,0.762 µM
same,EC50,[13],1.01 µM
same,Kd,[13]; read-out: apparent Kd,0.895 µM
same,EC50,[14],1.02 µM
same,Kd,[14]; read-out: apparent Kd,0.528 µM
same,EC50,[15],0.589 µM
same,Kd,[15]; read-out: apparent Kd,0.529 µM
same,EC50,[16],0.997 µM
same,Kd,[16]; read-out: apparent Kd,0.72 µM
same,EC50,[17],1.15 µM
same,Kd,[17]; read-out: apparent Kd,1.15 µM
same,EC50,[18],0.725 µM
same,Kd,[18]; read-out: apparent Kd,0.725 µM
same,EC50,[19],0.363 µM
same,Kd,[19]; read-out: apparent Kd,0.275 µM
same,EC50,[20],0.628 µM
same,Kd,[20]; read-out: apparent Kd,0.567 µM
same,EC50,[21],0.148 µM
same,Kd,[21]; read-out: apparent Kd,0.0772 µM
same,EC50,[22],0.81 µM
same,Kd,[22]; read-out: apparent Kd,0.617 µM
same,EC50,[23],1.05 µM
same,Kd,[23]; read-out: apparent Kd,1.05 µM
same,EC50,[24],0.639 µM
same,Kd,[24]; read-out: apparent Kd,0.639 µM
same,EC50,[25],0.325 µM
same,Kd,[25]; read-out: apparent Kd,0.257 µM
same,EC50,[26],1.73 µM
same,Kd,[26]; read-out: apparent Kd,1.58 µM

# From publication PMC11062922 (Nature Chemical Biology, 2023)
